{
  "source": "patent US20130274705A1",
  "about": "“FEEDBACK-BASED DIURETIC OR NATRIURETIC MOLECULE ADMINISTRATION” (MEDTRONIC, INC., priority 2012, published 2013)",
  "key": {"[1]": {"test_system": "anesthetized, mechanically ventilated male dog", "assay": "NICOM study: cardiac data in an anesthetized, mechanically ventilated dog", "assay_type": "in vivo", "conditions": "measured by NICOM monitor", "text": "A noninvasive cardiac output monitoring (NICOM) monitor was utilized to measure cardiac data from an anesthetized, mechanically ventilated, 54 lb, 42 inch (nose to base of tail) male dog. FIGS. 20-24 depict the cardiac data measured by the NICOM monitor.\nThe gap in data at 11:20 indicates electrocautery interference when the chest of the dog was opened. FIG. 21 depicts the data in response to sequential fluid boluses. An approximate 20% increase in CO was detected reflecting changes in both SV and HR. […] FIG. 23 depicts the cardiodepressant effect of the ultra-short beta-blocker esmolol given after dobutamine and recalibration. […] FIG. 24 depicts the response to increasing blood pressure with phenylephrine followed by decreasing blood pressure with sodium nitroprusside (SNP). Prior to this intervention, the dog chest had been opened and commercially available flow monitors had been implanted on the pulmonary artery (PA). Baseline PA flow data, which was measured by the implantable monitors, was 2.7 L/min. The PA flow data measured by the NICOM monitor was 2.812 L/min."}, "Dahl/SS rats": {"test_system": "Dahl/SS rats", "assay": "Pharmacodynamic study of VD in Dahl/SS rats on 4% salt diet (blood pressure)", "assay_type": "in vivo, rat", "conditions": "for blood pressure compared with 4% vehicle control group at week 3: week 3, p-value<0.05", "experimental": "The pharmacodynamic effects of VD were investigated in a rat model. Forty male Dahl/SS rats were shipped to the animal facilities at PhysioGenix, Inc. (Milwaukee, Wis.). The rats were maintained on a low-salt diet and allowed to acclimate. After acclimation, animals had baseline parameters collected while on the low-salt diet. Baseline tail-cuff blood pressures and echocardiograms were measured. Baseline urine was collected for analysis of protein and albumin. Animals were then randomly assigned to one of 4 groups (10 animals per group):\n1. Vehicle Control; low-salt diet, n=10 2. Vehicle Control; 4% salt diet, n=10 3. Vessel dilator, 100 ng/kg/min, 4% salt diet, n=10 4. Vessel dilator, 300 ng/kg/min, 4% salt diet, n=10\nLyophilized VD peptide (Bachem) was reconstituted in a Tris buffer having the same composition as the Tris buffer used in Example 7. The vehicle control groups were infused with a citrate-mannitol-saline buffer (0.66 mg/mL citric acid, 6.43 mg/mL sodium citrate, 40 mg/mL mannitol, 9 mg/mL NaCl). The animals were on a Teklad 7034 (low-salt) diet or Dyets AIN-76A 4% salt diet, as indicated, throughout a 6 week course of the study and had free access to water.\nAlzet® minipumps (Durect, Corp.) were surgically implanted on Days 1, 15, and 29 of the study to maintain continuous vehicle or drug dispensing at the desired dose for a total period of 6 weeks. Urine was collected at baseline, 2, 4 and 6 weeks after the initiation of the treatment to assess proteinuria and albuminuria. After six weeks of treatment, the animals were then euthanized."}, "[2]": {"test_system": "canine model high-rate paced (HRP) to simulate HF", "assay": "Pharmacodynamic study of VD by continuous subcutaneous infusion in high-rate paced canine heart failure model", "assay_type": "in vivo", "conditions": "SQ infusion 100 ng/kg·min", "experimental": "FIGS. 16 and 17 show the mean right atrial pressure and the mean pulmonary capillary wedge pressure, respectively, for control and experimental groups of a canine model high-rate paced (HRP). A pharmaceutical formulation of VD was prepared in a Tris buffer. 16.0 g glycerol, 6.05 g tris-(hydroxymethyl)-aminomethane (“Tris”), 2.50 g meta cresol were mixed in a 1.00 L volumetric flask. Approximately 900 mL nanopure water was added to the volumetric flask and the mixture was magnetically stirred to reach complete dissolution. 4 normal hydrochloric acid was used to adjust pH to 7.3 at 25° C. Then, the flask was filled to 1 L mark with nanopure water. The pH was rechecked and verified to be 7.3 at 25° C. The pH 7.3 Tris buffer was stored at 2-8° C. until use.\nLyophilized VD peptide (Bachem) was weighted into a glass vial and dissolved into a known volume of the Tris buffer to a concentration between 1 mg/mL and 10 mg/mL. The VD peptide was dissolved by gentle mixing and the solution was allowed to rest for between 20 and 30 minutes. The pH of the solution was checked and adjusted to 7.3 with 0.1 N sodium hydroxide. The solution was filtered through a 0.22 micron sterile filter into a sterile glass vial and stored at 2 to 8° C. until use.\nThe pharmacodynamic effects of VD delivered by subcutaneous infusion were investigated in a canine model high-rate paced (HRP) to a heart rate of 240 bpm (ventricular pacing) over a period of 10 days to simulate HF. The canines were divided into a control group and an experimental group. The control group received a continuous subcutaneous infusion of the Tris buffer without VD over the course of the 10 day period. The experimental group received continuous subcutaneous infusion of VD dissolved in Tris buffer at a dosing rate of 100 ng/kg·min based upon the body weight of individual canines.\nSeven days prior to the beginning of HRP (Day −7), all dogs were instrumented for ventricular pacing with an IPG (implantable pulse generator) including an RA (right atrium) and RV (right ventricle) lead, and a DSI ([…]) device in the femoral artery for arterial blood pressure monitoring. Glomerular filtration rate (GFR) was measured by iohexol clearance on the day before the beginning of HRP (Day −1). On Day 0, high-rate pacing was initiated at a rate of 240 BPM (beats per minute) and maintained continuously over the course of a 10 day period (Days 0-10). After HRP was started on Day 0, urine, blood, and hemodynamic data was collected from conscious animals to serve as a baseline. […]"}},
  "data": [
    {"compound": "CNC[C@H](O)c1cccc(O)c1", "note": "[Phenylephrine, phenylephrine]", "values": [
      {"measurement": "effect on cardiac output (CO)", "setting": "[1]", "value": "reduced CO"},
      {"measurement": "effect on heart rate (HR)", "setting": "[1]", "value": "reflex slowing of the HR"}
    ]},
    {"compound": "CC(CCc1ccc(O)cc1)NCCc1ccc(O)c(O)c1", "note": "(centres unmarked) [dobutamine]", "values": [
      {"measurement": "effect on cardiac output (CO)", "setting": "[1]", "value": "marked increase in CO"}
    ]},
    {"compound": "COC(=O)CCc1ccc(OCC(O)CNC(C)C)cc1", "note": "(centres unmarked) [esmolol]", "values": [
      {"measurement": "effect on cardiac output (CO)", "setting": "[1]", "value": "marked decline in CO"}
    ]},
    {"compound": "vessel dilator (EVVPPQVLSEPNEEAGAALSPLPEVPPWTGEVSPAQR; Vessel dilator; UniProt P01160 56-92, looked up) [VD, Natriuretic peptide of the ANP hormones; lyophilized VD peptide (Bachem) dissolved in Tris buffer]", "values": [
      {"measurement": "blood pressure compared with vehicle control group on 4% salt diet", "setting": "Dahl/SS rats; high-dose VD 300 ng/kg/min SQ infusion", "value": "attenuated blood pressure"},
      {"measurement": "blood pressure compared with 4% vehicle control group at week 3", "setting": "Dahl/SS rats; high-dose VD 300 ng/kg/min", "value": "statistically significant decrease in blood pressure"},
      {"measurement": "decrease in blood pressure compared with 4% vehicle control group at week 5", "setting": "Dahl/SS rats; high-dose VD 300 ng/kg/min", "value": "not as statistically significant"},
      {"measurement": "blood pressure compared with vehicle control group on 4% salt diet", "setting": "Dahl/SS rats; low-dose VD 100 ng/kg/min SQ infusion", "value": "attenuated blood pressure"},
      {"measurement": "blood pressure compared with 4% vehicle control group at week 3", "setting": "Dahl/SS rats; low-dose VD 100 ng/kg/min", "value": "statistically significant decrease in blood pressure"},
      {"measurement": "decrease in blood pressure compared with 4% vehicle control group at week 5", "setting": "Dahl/SS rats; low-dose VD 100 ng/kg/min", "value": "not as statistically significant"},
      {"measurement": "increase in right atrial pressure compared with control group", "setting": "[2]; Day 10, p-value<0.05", "value": "significantly less than for the control group"},
      {"measurement": "change in mean right atrial pressure from Day 0 to Day 10", "setting": "[2]; HRP 240 bpm, 10 days", "value": "increased slightly"},
      {"measurement": "difference in pulmonary capillary wedge pressure between control and experimental group on Day 10", "setting": "[2]; alpha 0.05, two-way repeated measures ANOVA", "value": "does not appear to be statistically significant"},
      {"measurement": "extent of increase in pulmonary capillary wedge pressure from Day 0 to Day 10", "setting": "[2]; versus control group", "value": "smaller than that observed in the control group"}
    ]}
  ]
}
